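1) Cells in 96-well plates. 2) Compound, 48 h, 5 concentrations. 3) Linear interpolation between surrounding doses. 4) Unreached endpoint = highest concentration. At the GI50, growth is halved. The concentration for full growth arrest is given as TGI.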
How the values were obtained:
Assay in all cases: NCI anticancer screen, dose series, 48 h
SF-295 CNS = tested on: SF-295 CNS
HOP-62 NSCLC = tested on: HOP-62 NSCLC
HCC-2998 colon = tested on: HCC-2998 colon
NCI-H522 lung = tested on: NCI-H522 lung
SN12C renal = tested on: SN12C renal
EKVX NSCLC = tested on: EKVX NSCLC
DU-145 prostate = tested on: DU-145 prostate
CAKI-1 renal = tested on: CAKI-1 renal
HOP-92 NSCLC = tested on: HOP-92 NSCLC
UACC-257 melanoma = tested on: UACC-257 melanoma

| SMILES | GI50 (SF-295 CNS) [µM] | TGI (SF-295 CNS) [µM] | GI50 (HOP-62 NSCLC) [µM] | TGI (HOP-62 NSCLC) [µM] | GI50 (HCC-2998 colon) [µM] | TGI (HCC-2998 colon) [µM] | GI50 (NCI-H522 lung) [µM] | TGI (NCI-H522 lung) [µM] | GI50 (SN12C renal) [µM] | TGI (SN12C renal) [µM] | GI50 (EKVX NSCLC) [µM] | TGI (EKVX NSCLC) [µM] | GI50 (DU-145 prostate) [µM] | TGI (DU-145 prostate) [µM] | GI50 (CAKI-1 renal) [µM] | TGI (CAKI-1 renal) [µM] | GI50 (HOP-92 NSCLC) [µM] | TGI (HOP-92 NSCLC) [µM] | TGI (UACC-257 melanoma) [µM] | GI50 (UACC-257 melanoma) [µM] |
| --- | --- | --- | --- | --- | --- | --- | --- | --- | --- | --- | --- | --- | --- | --- | --- | --- | --- | --- | --- | --- |
| O=C(/C=C/c1cccc(Cl)c1)c1ccc(Cl)cc1Cl | 10.1 | 22.4 | 17.4 | > 50 | 1.14 | 2.52 | 1.85 | 15.6 | 14.7 | 32 | 12.8 | 34.4 | 9.59 | 23 | 8.94 | 18.2 | 6.17 | 16.2 |  |  |
| C=C1C(C)C2C(Cc3ccccc3)NC(=O)C23C(OC(C)=O)/C=C/C(C)(O)CC(C)C/C=C/C3C1O (stereo not given) |  | 33.2 |  | 3.08 |  | > 100 |  | 45.1 |  | > 100 |  | > 96.7 |  | > 100 |  | 3.08 |  | 1.01 | 86.5 |  |
| Cc1nc(C(N)=S)sc1C(=O)/C=C/c1cccc(O)c1 |  | > 100 |  | > 100 |  | > 100 |  | > 100 |  | > 100 |  | > 100 |  |  |  | > 100 |  | > 100 | > 100 |  |
| COc1cc2c(cc1C)n(O)c(C)c(C(=O)C/C(=N/NC(=O)C[N+](C)(C)C)C(=O)Nc1cccc(Cl)c1C)[n+]2=O |  | > 100 |  | > 100 |  | > 100 |  | > 100 |  | > 100 |  | > 100 |  |  |  | > 100 |  | > 100 | > 100 |  |
| C=C(C)C1/C=C(/C(C)C)CC[C@]2(C)O[C@@H]2CC[C@H](C)CC1=O (stereo not given in full) | 71.4 | > 100 | 76 | > 100 | 99.9 | > 100 | > 100 | > 100 | > 100 | > 100 |  |  | 49.6 | > 100 | 35.3 | > 100 | 99.5 | > 100 |  |  |
| CC(=O)OC1CCC2(C)C(=CC(C3C=C4CC(OC(C)=O)CCC4(C)C4=C3C3CC5OC6(CCC(C)CO6)C(C)C5C3(C)CC4)C3=C2CCC2(C)C3CC3OC4(CCC(C)CO4)C(C)C32)C1 (stereo not given) |  | 26.5 |  | 32.5 |  |  |  | 19.4 |  | 31.9 |  | 37.1 |  | 27.2 |  | 32.1 |  | 27.1 | 21.9 |  |
| FC(F)(F)c1ccc(-c2cnc(Br)nc2NC2CCCCCC2)cc1 | 69.6 | > 100 | > 100 | > 100 | > 100 | > 100 | 28.3 | > 100 | > 100 | > 100 |  |  | > 100 | > 100 | 92.9 | > 100 |  |  | > 100 | 63.4 |
| CCC1(CN(C)C)CC/C(=C\c2ccc3c(c2)OCO3)C1=O (stereo not given) |  | > 100 |  | > 100 |  | > 100 |  | > 100 |  | > 100 |  | > 100 |  |  |  | > 100 |  | > 100 | > 100 |  |
| COc1ccc(NC(=O)c2cc(OC)c(OC)c(OC)c2)cc1O | 2.78 | > 100 | 5.36 | > 100 | 14.6 | > 100 |  |  | 7.99 | > 100 | > 100 | > 100 | 3.96 | > 100 |  |  | 0.861 | > 100 |  |  |
| Cc1ccc(Nc2ccc(Nc3ccc(C)cc3)c3c2C(=O)c2c(O)ccc(O)c2C3=O)cc1 |  | > 100 |  | > 100 |  | > 100 |  | > 100 |  | > 100 |  | > 100 |  |  |  | > 100 |  | > 100 | > 100 |  |
| Fc1ccc(-c2ncn(C3CCNCC3)c2-c2ccnc(Oc3cccc(F)c3)n2)cc1 | 12.4 | > 25 | > 21.8 | > 25 | 7.14 | > 25 | > 14.7 | > 25 | 19.1 | > 25 | > 25 | > 25 | > 21.3 | > 25 | 17.9 | > 25 |  |  |  |  |
| CCS/C(Nc1ccccc1)=C(\C#N)C(=O)Nc1ccc(OC)cc1 | 3.06 | > 100 | 5.62 | > 100 | 6.56 | > 100 | 2.2 | 9.68 | 5.91 | > 100 | 4.42 | > 100 | 3.48 | 49.8 | 3.39 | > 100 |  |  | > 100 | 21.2 |
| COc1ccc2c(c1)CC[C@@H]1C2CC[C@]2(C)C(=O)NC(=O)CC12 (stereo not given in full) |  | > 100 |  | > 100 |  | > 100 |  | > 100 |  | > 100 |  | > 100 |  |  |  | > 100 |  | > 100 | > 100 |  |
| C#Cc1ccc(NC(=O)c2ccc(/C=C/C(=O)c3nccn3C)cc2)cc1 | 0.537 | 1.25 | 0.612 | 1.65 | 0.434 | 0.804 | 0.518 | 1.37 |  |  | 0.565 | 1.45 | 0.597 | 1.57 | 0.51 | 1.34 | 0.53 | 2.23 | 2.21 | 0.66 |
| CC[C@@H]1OC2(C)CC(S(=O)(=O)c3ccccc3)CC1O2 (stereo not given in full) |  | > 100 |  | > 100 |  | > 100 |  | > 100 |  | > 100 |  | > 100 |  |  |  | > 100 |  | > 100 | > 100 |  |
| CCNCC(O)c1ccc(N)c([N+](=O)[O-])c1 (stereo not given) |  | > 100 |  | > 100 |  |  |  | > 100 |  | > 100 |  | > 100 |  | > 100 |  | > 100 |  |  | > 100 |  |
| O=C1/C(=C/c2cccs2)CCC/C1=C\c1cccs1 | 66.5 | > 100 | 21.9 | 49.2 | > 100 | > 100 | 40.1 | > 100 | > 100 | > 100 |  |  | 46.6 | > 100 | 55.8 | > 100 | 10.6 | 57.8 | > 100 | 79.1 |
